Structures can show the parent of a compound that is named as a salt.
Assays:
Type in all cases: cell-based
HTT mRNA = experiment: Splicing assay (RT-qPCR) monitoring HTT splice variants, canonical (CJ) and alternative (AJ) junction; details: 50% response, A673 or K562 cell line, 24 hours; for IC50: decrease in CJ mRNA; for AC50: increase in AJ mRNA
Summary of the method: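 A673 or K562 cells were treated 24 h with an 11-point 3-fold dilution series (top 10 uM, ≤0.25% DMSO) at 37 °C. HTT canonical- and alternative-junction mRNAs were quantified in lysates by one-step RT-qPCR. Values were normalized to PPIA (A673) or GAPDH/GUSB (K562).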

Target C CJ mRNA = experiment: Gene panel canonical junction qPCR assay, Target C; details: Table 6, decrease in CJ mRNA, read-out: Target C IC50 (decrease in CJ mRNA levels)
Summary of the method: (§1)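 A673 or K562 cells treated 24 h at 37° C with 11-point 3-fold dilutions, top 10 uM, DMSO ≤0.25%. CJ mRNA quantified by RT-qPCR with exon-junction-spanning probeset, ΔΔCt vs housekeeping gene (GAPDH, GUSB or PPIA) and DMSO control. IC50 from 4-parameter fit of percentage CJ decrease.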

SMN2 CJ mRNA = experiment: Gene panel canonical junction qPCR assay, SMN2; details: Table 6, decrease in CJ mRNA, read-out: SMN2 IC50 (decrease in CJ mRNA levels)
Summary of the method: as §1

HTT CJ mRNA = experiment: Gene panel canonical junction qPCR assay, HTT; details: Table 6, decrease in CJ mRNA, read-out: HTT IC50 (decrease in CJ mRNA levels)
Summary of the method: as §1

Structure (SMILES) | IC50 (HTT mRNA) [nM] | AC50 (HTT mRNA) [nM] | IC50 (Target C CJ mRNA) [nM] | IC50 (SMN2 CJ mRNA) [nM] | IC50 (HTT CJ mRNA) [nM]
CN1CCC2(CC1)CCN2c1cc2sc(-c3cc(F)c4nn(C)cc4c3)nc2s1 [Compound 204, 1-[2-(7-fluoro-2-methylindazol-5-yl)thieno[2,3-d][1,3]thiazol-5-yl]-7-methyl-1,7-diazaspiro [3.5]nonane] | 1000 to 10000 | 1000 to 10000 | 1000 to 10000 | 1000 to 10000 | 1000 to 10000
Cc1cn2nc(-c3cc4cn(C5CCNCC5)nc4s3)cc2c(C)n1 [Compound 222] | 1000 to 10000 | 1000 to 10000 | 1000 to 10000 | < 100 | 1000 to 10000
CN1CCN(c2cc3sc(-c4cc(F)c5nn(C)cc5c4)nc3s2)CC1 [Compound 141, 7-fluoro-2-methyl-5-[5-(4-methylpiperazin-1-yl)thieno[2,3-d][1,3]thiazol-2-yl]indazole] | 100 to 1000 | 100 to 1000 | 1000 to 10000 | < 100 | 100 to 1000
Cn1cc2cc(-c3cc4cn(C5CCOCC5)nc4s3)cc(F)c2n1 [Compound 161, 7-fluoro-2-methyl-5-[2-(oxan-4-yl)thieno[2,3-c]pyrazol-5-yl] indazole] | > 10000 | > 10000 | > 10000 | > 10000 | > 10000
CN1CCC(N(C)c2cc3sc(-c4cc(F)c5nn(C)cc5c4)nc3s2)CC1 [Compound 145, N-[2-(7-fluoro-2-methylindazol-5-yl)thieno[2,3-d][1,3]thiazol-5-yl]-N,1-dimethylpiperidin-4-amine] | > 10000 | > 10000 | > 10000 | 100 to 1000 | > 10000
Cc1cn2cc(-n3cc4cc(C5CCNCC5)sc4n3)ncc2n1 [Compound 158] | 100 to 1000 | 100 to 1000 | 100 to 1000 | 100 to 1000 | 100 to 1000
Cn1cc2cc(-c3cc4cn([C@@H]5CCNC5)nc4s3)cc(F)c2n1 [Compound 160, (R)-5-(7-fluoro-2-methyl-2H-indazol-5-yl)-2-(pyrrolidin-3-yl)-2H-thieno[2,3-c]pyrazole hydrochloride] | 1000 to 10000 | 1000 to 10000 | > 10000 | 100 to 1000 | 1000 to 10000
Cn1cc2cc(-c3cn4nc(C5CCNCC5)nc4s3)cc(F)c2n1 [Compound 102, 7-fluoro-2-methyl-5-[2-(piperidin-4-yl)-[1,2,4]triazolo[3,2-b][1,3]thiazol-5-yl]indazole] | 100 to 1000 | 100 to 1000 | 100 to 1000 | < 100 | 100 to 1000
CCN1CCC(n2cc3cc(-c4cc(F)c5nn(C)cc5c4)sc3n2)CC1 [Compound 149, 5-[2-(1-ethylpiperidin-4-yl)thieno[2,3-c]pyrazol-5-yl]-7-fluoro-2-methylindazole] | < 100 | < 100 | 100 to 1000 | < 100 | < 100
c1n[nH]cc1-n1cc2sc(C3CCNCC3)cc2n1 [Compound 176] | > 10000 | > 10000 | > 10000 | > 10000 | > 10000
Cc1cc(-c2cc3cn(C4CCNCC4)nc3s2)cc2cn(C)nc12 [Compound 225] | < 100 | < 100 | 100 to 1000 | < 100 | < 100
CN1CCCC2(CCN2c2cc3sc(-c4cc(F)c5nn(C)cc5c4)nc3s2)C1 (centres unmarked) [Compound 203, 1-[2-(7-fluoro-2-methylindazol-5-yl)thieno[2,3-d][1,3]thiazol-5-yl]-6-methyl-1,6-diazaspiro[3.5]nonane] | > 10000 | > 10000 | > 10000 | 1000 to 10000 | > 10000
Cn1cc2cc(-c3cc4cn([C@H]5CCNC[C@H]5F)nc4s3)cc(F)c2n1 (stereo in doubt) [Compound 182] | < 100 | 100 to 1000 | 100 to 1000 | < 100 | < 100

Reference: US20240239811A1, “5-(5-(PIPERIDIN-4-YL)THIENO[3,2-C]PYRAZOL-2-YL]INDAZOLE DERIVATIVES AND RELATED COMPOUNDS AS MODULATORS FOR SPLICING NUCLEIC ACIDS AND FOR THE T” (REMIX THERAPEUTICS INC., priority 2020, published 2024)
